≈ marks a conversion by molar mass, not a printed value. Calls of active or inactive are those of the source. The rule behind the calls is not given here.
Tests used:
Type in all cases: functional
Candida albicans [1] = assay: Antifungal activity against Candida albicans CA98001
Aspergillus fumigatus = assay: Antifungal activity against Aspergillus fumigatus AF98003
Candida parapsilosis [2] = assay: Antifungal activity against fluconazole-resistant Candida parapsilosis Rolland; conditions: Lodderomyces parapsilosis
Candida albicans [3] = assay: Antifungal activity against fluconazole-resistant Candida albicans CA424
Candida albicans [4] = assay: Antifungal activity against fluconazole-resistant Candida albicans CA284
Pichia kudriavzevii [5] = assay: Antifungal activity against fluconazole-resistant Candida krusei CK506
Pichia kudriavzevii [6] = assay: Antifungal activity against fluconazole low-sensitive Candida krusei CK8
Nakaseomyces glabratus = assay: Antifungal activity against fluconazole-resistant Candida glabrata CG468
Candida parapsilosis [7] = assay: Antifungal activity against fluconazole-resistant Candida parapsilosis Houdeau; conditions: Lodderomyces parapsilosis

SMILES	MIC (Candida albicans [1]) [µg/mL]	MIC (Aspergillus fumigatus)	further results
O=C(c1ccccc1)n1ccc2cc(CNCC(O)(Cn3cncn3)c3ccc(F)cc3F)ccc21 (stereo unspecified)	0.027 (≈ 0.0554 µM)	inactive	–
O=C(c1ccccc1)n1ccc2cc(CNCC(O)(Cn3cncn3)c3ccc(Cl)cc3Cl)ccc21 (stereo unspecified)	0.031 (≈ 0.0596 µM)	inactive	–
OC(CNCc1ccc2[nH]ccc2c1)(Cn1cncn1)c1ccc(F)cc1F (stereo unspecified)	0.034 (≈ 0.0887 µM)	inactive	–
CC(C)(C)OC(=O)n1ccc2cc(CNCC(O)(Cn3cncn3)c3ccc(F)cc3F)ccc21 (stereo unspecified)	0.003 (≈ 0.0062 µM)	inactive	MIC (Candida parapsilosis [2]): 19 µg/mL (≈ 39.3 µM); MIC (Candida albicans [3]): 33 µg/mL (≈ 68.2 µM); MIC (Candida albicans [4]): 32 µg/mL (≈ 66.2 µM); MIC (Pichia kudriavzevii [5]): 27 µg/mL (≈ 55.8 µM); MIC (Pichia kudriavzevii [6]): 3.8 µg/mL (≈ 7.86 µM); MIC (Nakaseomyces glabratus): 12 µg/mL (≈ 24.8 µM); MIC (Candida parapsilosis [7]): 24 µg/mL (≈ 49.6 µM)
CN(Cc1ccc2[nH]ccc2c1)CC(O)(Cn1cncn1)c1ccc(F)cc1F (stereo unspecified)	0.035 (≈ 0.0881 µM)	inactive	–
OC(Cn1cncn1)(Cn1cncn1)c1ccc(F)cc1F [FLUCONAZOLE]	0.19 (≈ 0.62 µM)	–	MIC (Candida parapsilosis [2]): > 64 µg/mL; MIC (Candida albicans [3]): > 64 µg/mL; MIC (Candida albicans [4]): > 64 µg/mL; MIC (Pichia kudriavzevii [5]): > 64 µg/mL; MIC (Pichia kudriavzevii [6]): 19 µg/mL (≈ 62 µM); MIC (Nakaseomyces glabratus): > 64 µg/mL; MIC (Candida parapsilosis [7]): > 64 µg/mL
CN(Cc1ccc2c(ccn2C(=O)c2ccccc2)c1)CC(O)(Cn1cncn1)c1ccc(F)cc1F (stereo unspecified)	0.032 (≈ 0.0638 µM)	inactive	–
CCC(C)n1ncn(-c2ccc(N3CCN(c4ccc(OCC5COC(Cn6cncn6)(c6ccc(Cl)cc6Cl)O5)cc4)CC3)cc2)c1=O (stereo unspecified) [ITRACONAZOLE]	–	0.42 µg/mL (≈ 0.595 µM)	–
CN(Cc1ccc2[nH]cc(C(=O)C(F)(F)F)c2c1)CC(O)(Cn1cncn1)c1ccc(F)cc1F (stereo unspecified)	0.064 (≈ 0.13 µM)	inactive	–
OC(CNCc1ccc2[nH]ccc2c1)(Cn1cncn1)c1ccc(Cl)cc1Cl (stereo unspecified)	0.031 (≈ 0.0745 µM)	inactive	–
CN(Cc1ccc2c(ccn2C(=O)OC(C)(C)C)c1)CC(O)(Cn1cncn1)c1ccc(F)cc1F (stereo unspecified)	0.06 (≈ 0.121 µM)	inactive	–
CC(C)(C)OC(=O)n1ccc2cc(CNCC(O)(Cn3cncn3)c3ccc(Cl)cc3Cl)ccc21 (stereo unspecified)	0.039 (≈ 0.0755 µM)	inactive	–

Source: ChEMBL document CHEMBL1156063, “Design of new antifungal agents: synthesis and evaluation of 1-[(1H-indol-5-ylmethyl)amino]-2-phenyl-3-(1H-1,2,4-triazol-1-yl)propan-2-ols” (2009)
